Earlier results in patent US6399797B1, “Vitamin D analogues” (Leo Pharmaceutical Products Ltd. A/S (Løvens kemiske Fabrik …, priority 1997, dated 2002).

Columns and labels:
[1] = test system: experimental animal models; details: systemically administered
[2] = test system: transplanted islets in diabetic NOD mice; details: alone or in combination with cyclosporin A
[3] = test system: cardiac and small bowel grafts; details: rats

Row | Structure (SMILES) | immunosuppressive activities in vivo [1] | prevention of autoimmune destruction of transplanted islets [2] | survival of cardiac and small bowel grafts [3]
1 | C=C1/C(=C\C=C2/CCC[C@]3(C)[C@@H]([C@@H](C)OCCCC(O)(CC)CC)CC[C@@H]23)C[C@@H](O)C[C@@H]1O [KH 1060] | have shown immunosuppressive activities in vivo | prevent autoimmune destruction of transplanted islets | –
2 | C=C1/C(=C\C=C2/CCC[C@]3(C)[C@@H]([C@H](C)CCCC(C)(C)O)CC[C@@H]23)C[C@@H](O)C[C@@H]1O [MC 1288] | have shown immunosuppressive activities in vivo | – | able to prolong survival of cardiac and small bowel grafts
